Assay results from US20220338769A1, “METHODS AND APPARATUS FOR SUBSTANCE DELIVERY IN AN IMPLANTABLE DEVICE” (GlySens Incorporated, priority 2021, published 2022).

How the values were obtained:
[1] = cited from earlier work
[2] = cited from earlier work; remark: listed apart in the source
[3] = human, in vivo
[4] = Expected patient plasma DXA at the exemplary elution rates; format: in vivo; details: below LOQ
Description: With a manufacturing process that consists of at least two months (60 days) from the start of elution until implant, and using data from in vitro release testing, a daily release of between approximately 2 and 5 μg DXA in one exemplary embodiment is expected over the life of the implant (average of approximately 3 μg/day). These exemplary elution rates are within range of the elution rates seen in the above-referenced predicate devices. At these elution rates, it can be reasonably expected that patient plasma DXA levels to be below the 50 pg/mL LOQ. The full modeled release profile is shown in FIG. 2, which illustrates total release 212 of DXA from the implantable sensor device accumulating prior to implantation with, daily release 214 of DXA from the implantable sensor starting at a rate of approximately 4.8 μg per day upon implantation and gradually reducing to below 2.0 μg/day over the period of implantation. In other embodiments, DSP, other dexamethasone compounds, and/or other eluting anti-inflammatory drugs may be used similarly.

daily dose required to have a DXA level greater than the LOQ in plasma [3] [µg]	expected patient plasma DXA levels [4] [pg/mL]	Structure (SMILES)	water solubility [1]	plasma DXA ([2]; one device implanted, no measurable DXA, LOQ = 50 pg/mL) [pg/mL]	maximum reported plasma DXA ([2]; two devices implanted) [pg/mL]	time DXA measurable in plasma after implant ([2]; two devices implanted, some patients)
		C[C@@H]1C[C@H]2[C@@H]3CCC4=CC(=O)C=C[C@]4(C)[C@@]3(F)[C@@H](O)C[C@]2(C)[C@@]1(O)C(=O)COP(=O)(O)O [DSP, dexamethasone sodium phosphate]	highly water soluble			
≥ 15	< 50	CC(=O)OCC(=O)[C@@]1(O)[C@H](C)C[C@H]2[C@@H]3CCC4=CC(=O)C=C[C@]4(C)[C@@]3(F)[C@@H](O)C[C@@]21C [DXA, dexamethasone acetate]		< 50	114	up to 8 days
